Experimental data from ChEMBL document CHEMBL3885861, “Open TG-GATES”.

Species: Rattus norvegicus
Experiment: Open TG-GATES - Regimen: Single
Type: toxicity, organism-based, Sprague-Dawley
Design: regimen Single, gender Male, age 6 weeks
Settings: in vivo, po, 2000 mg/kg, route gavage, dose level High; for APTT / Bas / Eos / Fbg / Hb / Ht / Lym / MCH / MCHC / MCV / Mono / Neu / Plat / RBC / Ret / WBC: tissue Blood; for KIDNEY_L / KIDNEY_R / KIDNEY_TOTAL: tissue Kidney; for LIVER: tissue Liver; for ALP / ALT / AST / BUN / CRE / Ca / Cl / DBIL / GLC / IP / K / LDH / Na / PL / RALB / TBIL / TC / TG / TP / gamma-GTP: tissue Plasma

## CC(=O)Oc1ccccc1C(=O)O [ASPIRIN]
3 h
  TERMINAL_BW: 220 g
  APTT: 19.5 s
  Bas: 0%
  Eos: 1.2%
  Fbg: 224.8 mg/dL
  Hb: 13.7 g/dL
  Ht: 37.7%
  Lym: 62.2%
  MCH: 21.9 pg
  MCHC: 36.3%
  MCV: 60.4 fL
  Mono: 4.6%
  Neu: 30.4%
  Plat: 124.1 x10_4/uL
  RBC: 625.8 x10_4/ul
  Ret: 8.1%
  WBC: 71.4 x10_2/uL
  KIDNEY_L: 1 g
  KIDNEY_R: 1 g
  KIDNEY_TOTAL: 1.9 g
  LIVER: 8.9 g
  ALP: 991.6 IU/L
  ALT: 41.4 IU/L
  AST: 86.6 IU/L
  BUN: 15.6 mg/dL
  CRE: 0.4 mg/dL
  Ca: 8.3 mg/dL
  Cl: 103.6 meq/L
  DBIL: 0.06 mg/dL
  GLC: 200 mg/dL
  IP: 9 mg/dL
  K: 3.4 meq/L
  LDH: 248.4 IU/L
  Na: 141 meq/L
  PL: 96.4 mg/dL
  RALB: 3.5 g/dL
  TBIL: 0.1 mg/dL
  TC: 62 mg/dL
  TG: 24 mg/dL
  TP: 5.8 g/dL
  gamma-GTP: 1.4 IU/L
6 h
  TERMINAL_BW: 217 g
  APTT: 20.8 s
  Bas: 0%
  Eos: 0.8%
  Fbg: 225.6 mg/dL
  Hb: 13.7 g/dL
  Ht: 37.8%
  Lym: 63.8%
  MCH: 22.1 pg
  MCHC: 36.3%
  MCV: 60.8 fL
  Mono: 3%
  Neu: 31.6%
  Plat: 118.3 x10_4/uL
  RBC: 622 x10_4/ul
  Ret: 8.3%
  WBC: 91.9 x10_2/uL
  KIDNEY_L: 1 g
  KIDNEY_R: 1 g
  KIDNEY_TOTAL: 2 g
  LIVER: 8.3 g
  ALP: 843.8 IU/L
  ALT: 35.4 IU/L
  AST: 79 IU/L
  BUN: 17.8 mg/dL
  CRE: 0.4 mg/dL
  Ca: 8.1 mg/dL
  Cl: 104.2 meq/L
  DBIL: 0.056 mg/dL
  GLC: 221.4 mg/dL
  IP: 7.9 mg/dL
  K: 3.2 meq/L
  LDH: 233.4 IU/L
  Na: 140.4 meq/L
  PL: 103.4 mg/dL
  RALB: 3.5 g/dL
  TBIL: 0.1 mg/dL
  TC: 67.8 mg/dL
  TG: 12.2 mg/dL
  TP: 5.7 g/dL
  gamma-GTP: 1.2 IU/L
9 h
  TERMINAL_BW: 217.3 g
  APTT: 22.1 s
  Bas: 0%
  Eos: 0.8%
  Fbg: 224.8 mg/dL
  Hb: 13.9 g/dL
  Ht: 38.3%
  Lym: 65%
  MCH: 21.8 pg
  MCHC: 36.3%
  MCV: 60.1 fL
  Mono: 2.2%
  Neu: 31.2%
  Plat: 127.8 x10_4/uL
  RBC: 636.2 x10_4/ul
  Ret: 8%
  WBC: 88.7 x10_2/uL
  KIDNEY_L: 0.9 g
  KIDNEY_R: 0.9 g
  KIDNEY_TOTAL: 1.8 g
  LIVER: 7.9 g
  ALP: 712.8 IU/L
  ALT: 34.4 IU/L
  AST: 77.2 IU/L
  BUN: 15 mg/dL
  CRE: 0.4 mg/dL
  Ca: 8 mg/dL
  Cl: 105.2 meq/L
  DBIL: 0.048 mg/dL
  GLC: 211.4 mg/dL
  IP: 7.6 mg/dL
  K: 3.3 meq/L
  LDH: 212.4 IU/L
  Na: 139.4 meq/L
  PL: 97.2 mg/dL
  RALB: 3.4 g/dL
  TBIL: 0.092 mg/dL
  TC: 59.4 mg/dL
  TG: 11 mg/dL
  TP: 5.6 g/dL
  gamma-GTP: 0.8 IU/L
24 h
  TERMINAL_BW: 210.7 g
  APTT: 32.6 s
  Bas: 0%
  Eos: 0.8%
  Fbg: 223 mg/dL
  Hb: 14.7 g/dL
  Ht: 39.8%
  Lym: 69.2%
  MCH: 22 pg
  MCHC: 37%
  MCV: 59.4 fL
  Mono: 2.6%
  Neu: 26.4%
  Plat: 125.8 x10_4/uL
  RBC: 669.4 x10_4/ul
  Ret: 7.5%
  WBC: 56.2 x10_2/uL
  KIDNEY_L: 0.9 g
  KIDNEY_R: 0.9 g
  KIDNEY_TOTAL: 1.9 g
  LIVER: 7 g
  ALP: 912.4 IU/L
  ALT: 30 IU/L
  AST: 138.6 IU/L
  BUN: 14.6 mg/dL
  CRE: 0.4 mg/dL
  Ca: 7 mg/dL
  Cl: 104 meq/L
  DBIL: 0.048 mg/dL
  GLC: 230.6 mg/dL
  IP: 6.3 mg/dL
  K: 3.1 meq/L
  LDH: 232.4 IU/L
  Na: 138.4 meq/L
  PL: 81.6 mg/dL
  RALB: 3.5 g/dL
  TBIL: 0.092 mg/dL
  TC: 44.4 mg/dL
  TG: 24.8 mg/dL
  TP: 5.7 g/dL
  gamma-GTP: 1.4 IU/L
